Assay results as given in US7612211B2, “Benzimidazole TRPV1 inhibitors” (Janssen Pharmaceutica N.V., priority 2006, dated 2009).

Columns and labels:
hTRPV1 [1] = target: T1, hTRPV1 (Homo sapiens, UniProt Q8NER1); assay: Human TRPV1 [3H]RTX binding assay (membranes of transfected HEK293 cells); settings: inhibition of [3H]RTX binding
T1 construct: expressed in transfected cells; host or cells: HEK293
Procedure: Compounds of the present invention were tested for their ability to inhibit the binding of [^3H] RTX to hTRPV1 receptors in a [^3H] RTX binding assay as previously described (See, PCT International Application WO02/33411A1 and Elfrida G. R. et al., J. Pharmacol. Exp. Ther., 2002, 300(1): 9-17.)
HEK293 cells were transfected with hTRPV1 vanilloid receptors and washed with Hank's balanced Salt Solution, dissociated with cell dissociation buffer (Sigma), and then centrifuged at 1000×g for 5 min. Cell pellets were homogenized in cold 20 mM HEPES buffer (pH=7.4), containing 5.8 mM NaCl, 320 mM sucrose, 2 mM MgCl2, 0.75 CaCl2 and 5 mM KCl and centrifuged at 1000×g for 15 min. The resultant supernatant was then centrifuged at 40,000×g for 15 min. The pelleted membranes were stored in a freezer at −80° C.
Approximately 120 μg protein/mL from membranes were incubated with indicated concentrations of [^3H]RTX in 0.5 mL of the HEPES buffer (pH 7.4) containing 0.25 mg/mL fatty acid-free bovine serum albumin at 37° C. for 60 min. […] Bound radioactivity was quantified by scintillation counting. Non-specific binding was measured in the presence of 200 nM unlabeled RTX.
Data were calculated according to the equation: % inhibition=100%×[(total binding−binding)/(total binding−non specific binding)]. Ki values were calculated using a Prism program.

hTRPV1 [2] = target: T1, hTRPV1; assay: Human TRPV1 (hTRPV1) functional assay, FLIPR intracellular Ca2+, capsaicin challenge; assay type: cell-based; settings: HEK293 cells expressing hTRPV1, capsaicin 0.030 μM challenge; for IC50: derived from a variety of test concentrations, read-out: IC50 value (symbol c); for inhibition at 0.5 µM: test concentration of 0.5 μm, read-out: percent inhibition (symbol a)
Procedure, shortened: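 HEK293 cells expressing the channel, loaded with Calcium 3 dye, were exposed to compounds for 5 min before capsaicin 0.030 μM (~80% maximal). FLIPR Ca2+ read; IC50/EC50 from quadruplicate concentration-response, or percent inhibition at 0.5 μm or 0.2 μm.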

male Sprague-Dawley rats = assay: CFA-induced inflammatory pain, reversal of thermal hyperalgesia (radiant heat paw stimulator); assay type: in vivo; settings: Rattus norvegicus, po, 10 mg/kg orally, 24 h after CFA, maximal during the 300 min test, read-out: % Reversal (maximal percent reversal of hypersensitivity)
Procedure: Compounds of the present invention were tested in animal models of inflammation and inflammatory pain. To assess the ability of test compounds to reverse thermal hyperalgesia, baseline response latencies on a radiant heat (RH) paw stimulator were obtained before an intraplantar injection of 100 μL (1 μg/μL) CFA (1:1 CFA:saline) in male Sprague-Dawley rats. Only withdrawal responses that were quick hind paw movements (with or without licking of the hind paw) were recorded. Paw movements associated with locomotion or a shifting of weight were not considered a withdrawal response. The stimulus intensity that produced 10-15 sec baseline withdrawal latencies was used and a maximum cutoff of 20 sec was imposed. Hypersensitivity was evaluated 24 h after CFA.
Following the post-inflammogen latency assessment, rats were orally dosed (2.5 mL/kg) with test compound (10 mg/kg) or vehicle (20% hydroxypropyl beta cyclodextran). To determine the time of peak effect, latencies were redetermined 30, 60, 100, 180 and 300 min after compound administration.
Data are presented as the maximal percent reversal of hypersensitivity obtained during the 300 min test, which was calculated for each animal according to the formula: % reversal=100%×(treatment response−post-inflammogen response)/(pre-inflammogen response−post-inflammogen response)

T1 sequence (Q8NER1 whole entry): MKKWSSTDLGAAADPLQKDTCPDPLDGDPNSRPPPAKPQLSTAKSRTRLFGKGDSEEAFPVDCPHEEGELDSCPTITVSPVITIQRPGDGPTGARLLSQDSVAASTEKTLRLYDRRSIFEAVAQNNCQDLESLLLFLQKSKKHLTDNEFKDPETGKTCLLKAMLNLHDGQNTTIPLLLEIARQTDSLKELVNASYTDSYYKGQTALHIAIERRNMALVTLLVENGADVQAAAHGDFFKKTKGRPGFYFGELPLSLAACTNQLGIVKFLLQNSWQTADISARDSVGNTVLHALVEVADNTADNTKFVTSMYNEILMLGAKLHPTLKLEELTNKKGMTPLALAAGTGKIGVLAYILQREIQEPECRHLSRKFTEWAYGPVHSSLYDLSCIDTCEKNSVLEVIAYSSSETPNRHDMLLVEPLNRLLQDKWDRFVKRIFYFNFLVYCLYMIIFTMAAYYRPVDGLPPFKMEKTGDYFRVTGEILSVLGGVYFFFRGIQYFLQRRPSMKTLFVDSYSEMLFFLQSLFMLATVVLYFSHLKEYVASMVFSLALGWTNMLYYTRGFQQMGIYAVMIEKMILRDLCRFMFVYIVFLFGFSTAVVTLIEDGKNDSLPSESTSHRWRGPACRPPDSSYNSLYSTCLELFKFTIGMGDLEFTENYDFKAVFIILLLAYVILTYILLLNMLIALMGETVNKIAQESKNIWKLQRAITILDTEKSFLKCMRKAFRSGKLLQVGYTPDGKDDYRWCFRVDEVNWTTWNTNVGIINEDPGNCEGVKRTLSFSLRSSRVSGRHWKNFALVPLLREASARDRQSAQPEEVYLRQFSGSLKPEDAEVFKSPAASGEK

| SMILES | Ki (hTRPV1 [1]) | IC50 (hTRPV1 [2]) | inhibition at 0.5 µM (hTRPV1 [2]) | inhibition in vivo at 10 mg/kg (male Sprague-Dawley rats) | inhibition at 0.2 µM (hTRPV1 [2]; test concentration of 0.2 μm, read-out: percent inhibition (symbol b)) |
| --- | --- | --- | --- | --- | --- |
| NS(=O)(=O)c1ccccc1-c1ccc2[nH]c(COc3ccc(C(F)(F)F)cc3)nc2c1 [Cpd 1, 2-[2-(4-trifluoromethyl-phenoxymethyl)-1H-benzoimidazol-5-yl]-benzenesulfonamide] | 2.7 nM | 3 nM | 100% | 85% | – |
| NS(=O)(=O)c1ccccc1-c1ccc2[nH]c(COc3ccc(S(=O)(=O)C(F)(F)F)cc3)nc2c1 [Cpd 2, 2-[2-(4-trifluoromethanesulfonyl-phenoxymethyl)-1H-benzoimidazol-5-yl]-benzenesulfonamide] | – | 10 nM | 99% | 80% | – |
| NS(=O)(=O)c1ccccc1-c1ccc2[nH]c(COc3ccc(OC(F)(F)F)cc3)nc2c1 [Cpd 16, 2-[2-(4-trifluoromethoxy-phenoxymethyl)-1H-benzoimidazol-5-yl]-benzenesulfonamide] | – | 10 nM | 99% | 70% | – |
| CNS(=O)(=O)c1ccccc1-c1ccc2[nH]c(COc3ccc(C(F)(F)F)cc3)nc2c1 [Cpd 17, N-methyl-2-[2-(4-trifluoromethyl-phenoxymethyl)-1H-benzoimidazol-5-yl]-benzenesulfonamide] | – | 1 nM | 100% | 100% | – |
| CC(C)(O)c1ccccc1-c1ccc2[nH]c(COc3ccc(C(F)(F)F)cc3)nc2c1 [Cpd 21, 2-{2-[2-(4-trifluoromethyl-phenoxymethyl)-1H-benzoimidazol-5-yl]-phenyl}-propan-2-ol] | – | 14 nM | 99% | 100% | – |
| CS(=O)(=O)c1ccccc1-c1ccc2[nH]c(COc3ccc(S(=O)(=O)C(F)(F)F)cc3)nc2c1 [Cpd 86, 5-(2-methanesulfonyl-phenyl)-2-(4-trifluoromethanesulfonyl-phenoxymethyl)-1H-benzoimidazole] | – | 4.9 nM | – | 100% | 97% |
| CS(=O)(=O)c1ccccc1-c1ccc2[nH]c(COc3ccc(C(F)(F)F)cc3)nc2c1 [Cpd 98, 5-(2-methanesulfonyl-phenyl)-2-(4-trifluoromethyl-phenoxymethyl)-1H-benzoimidazole] | – | 2.1 nM | 94% | 30% | – |
| CS(=O)(=O)Nc1ccccc1-c1ccc2[nH]c(COc3ccc(C(F)(F)F)cc3)nc2c1 [Cpd 101, N-{2-[2-(4-trifluoromethyl-phenoxymethyl)-1H-benzoimidazol-5-yl]-phenyl}-methanesulfonamide] | – | 10 nM | 94% | 22% | – |
